For five molecules, IC50 and Kd results are on record in patent publication US20240287138A1, “CYCLIC PEPTIDES FOR INHIBITING TNF RECEPTOR 1 ACTIVITY” (Merck Sharp & Dohme LLC, priority 2023, published 2024).

Numbered stars: 1 amine (or outer) side, 2 acyl side, 3 side chain; on linkers, the order of the positions; unused ones are H or OH. Square brackets hold non-standard residues; d marks the D form. Peptide text beside a SMILES is read from it. * marks the point of attachment. Trp(βS-Me,7-OMe) = COc1cccc2c([C@H](C)[C@H](N)C(=O)O)c[nH]c12; X49 = C[N+](C)(C)CC(=O)N[C@H]1C[C@H](C(=O)[*:2])N([*:1])C1; Trp(1-CH2COOH) = N[C@@H](Cc1cn(CC(=O)O)c2ccccc12)C(=O)O; Phe(4-SO3H) = N[C@@H](Cc1ccc(S(=O)(=O)O)cc1)C(=O)O; X54 = O=C(O)c1c(F)cc(C[C@H](N[*:1])C(=O)[*:2])cc1F; Trp(7-CN) = N#Cc1cccc2c(C[C@H](N)C(=O)O)c[nH]c12; Trp(7-Cl) = N[C@@H](Cc1c[nH]c2c(Cl)cccc12)C(=O)O; Phe(4-CONH2) = NC(=O)c1ccc(C[C@H](N)C(=O)O)cc1; Phe(4-COOH) = N[C@@H](Cc1ccc(C(=O)O)cc1)C(=O)O; Trp(7-aza) = N[C@@H](Cc1c[nH]c2ncccc12)C(=O)O; Pip(5R-OH) = O=C(O)[C@@H]1CC[C@@H](O)CN1; X1 = O=C([C@@H]1CC[C@H](N[*:1])C1)[*:2]; X53 = O=C([C@H](Cc1ccncc1F)N[*:1])[*:2]; Pip(4-aza) = O=C(O)[C@@H]1CNCCN1; 4Pal = N[C@@H](Cc1ccncc1)C(=O)O; NMeE = CN[C@@H](CCC(=O)O)C(=O)O; αMeS = C[C@](N)(CO)C(=O)O; Nle = CCCC[C@H](N)C(=O)O; Me2NCH2CH2 = CN(C)CC*; Sar = CNCC(=O)O

Assay [1] concerns the target T1, TNFα-induced NF-κB signal transduction pathway (TNFR1 signaling) in THP-1 cells (Homo sapiens, UniProt P19438).
T1 sequence (P19438 30-455): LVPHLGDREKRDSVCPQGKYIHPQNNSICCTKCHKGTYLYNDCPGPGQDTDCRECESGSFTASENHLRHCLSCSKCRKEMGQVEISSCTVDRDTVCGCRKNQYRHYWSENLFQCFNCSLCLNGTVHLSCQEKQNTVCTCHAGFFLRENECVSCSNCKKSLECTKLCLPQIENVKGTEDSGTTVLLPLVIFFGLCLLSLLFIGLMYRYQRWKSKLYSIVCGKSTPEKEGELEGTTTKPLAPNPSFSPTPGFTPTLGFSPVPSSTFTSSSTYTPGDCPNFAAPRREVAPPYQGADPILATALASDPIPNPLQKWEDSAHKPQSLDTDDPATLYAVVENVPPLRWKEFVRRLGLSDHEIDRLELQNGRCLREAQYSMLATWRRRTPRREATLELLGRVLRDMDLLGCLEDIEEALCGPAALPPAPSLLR
In words: THP-1 Lucia NF-κB reporter cell assay, inhibition of TNFα-induced NF-κB signaling. The class given is cell-based. Conditions: THP-1 NF-κB Lucia reporter cells, 10 ng/mL TNFα, 16-18 h, secreted luciferase; read-out: THP-1 IC50. The procedure, abridged:
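IC50 from a 4-parameter logistic fit of secreted luciferase luminescence (QUANTI-Luc), normalised to min/max controls. Reporter THP-1 cells were exposed to peptides for 1 h at 37 °C before 10 ng/mL TNFα (final) was added overnight (16–18 h).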

The target in assay [2] is T2, human soluble TNFR1 (sTNFR1) (Homo sapiens, UniProt P19438).
T2 construct: made in house; host or cells: Sf21 (baculovirus)
T2 sequence (P19438 with tags, fused parts or gaps): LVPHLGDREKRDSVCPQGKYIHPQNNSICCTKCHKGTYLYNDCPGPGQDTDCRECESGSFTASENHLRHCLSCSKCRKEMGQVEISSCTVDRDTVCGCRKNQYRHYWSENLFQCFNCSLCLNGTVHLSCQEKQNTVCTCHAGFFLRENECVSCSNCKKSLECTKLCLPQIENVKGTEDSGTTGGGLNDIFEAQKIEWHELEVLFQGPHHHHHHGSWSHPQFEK
In words: Human sTNFR1-peptide displacement assay (LanthaScreen Eu TR-FRET binding assay). Put shortly:
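Readout is the 665/615 nm TR-FRET ratio (Eu anti-His donor, streptavidin-Alexa647 acceptor), normalized to DMSO and saturating displacer, fit by Morrison-based five-parameter logistic for Kd^app. His-tagged sTNFR1 (1-211) prebound to 100 nM biotinylated peptide SEQ ID NO.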

Take `CCCC[C@@H]1NC(=O)[C@@H]2CC[C@@H](C2)NC(=O)[C@H]([C@@H](C)c2c[nH]c3c(OC)cccc23)NC(=O)CN(C)C(=O)[C@H](Cc2cc(F)c(C(=O)O)c(F)c2)NC(=O)[C@H](Cc2ccc(C(N)=O)cc2)NC(=O)[C@](C)(CO)NC(=O)[C@H](Cc2c[nH]c3c(C#N)cccc23)NC(=O)[C@H](Cc2cc(F)c(C(=O)O)c(F)c2)NC(=O)[C@H](CC(N)=O)NC(=O)[C@H]2C[C@H](NC(=O)C[N+](C)(C)C)CN2C(=O)[C@H](Cc2c[nH]c3ncccc23)NC(=O)[C@@H]2CC[C@@H](O)CN2C(=O)[C@H](Cc2ccncc2)NC1=O` [SEQ ID NO. 193] (cyclo([4Pal][Pip(5R-OH)][Trp(7-aza)][X49]N[X54][Trp(7-CN)][αMeS][Phe(4-CONH2)][X54][Sar][Trp(βS-Me,7-OMe)][X1][Nle])): the IC50 in assay [1] stood at 1000 pM. This molecule also came in with a Kd in assay [2] of 150 pM.
In the same order, the values of `CCCC[C@@H]1NC(=O)[C@@H]2CC[C@@H](C2)NC(=O)[C@H]([C@@H](C)c2c[nH]c3c(OC)cccc23)NC(=O)CN(C)C(=O)[C@H](Cc2ccc(OCCN(C)C)cc2)NC(=O)[C@H](Cc2ccc(C(=O)O)cc2)NC(=O)[C@](C)(CO)NC(=O)[C@H](Cc2c[nH]c3c(Cl)cccc23)NC(=O)[C@H](Cc2ccncc2)NC(=O)[C@H](CC(N)=O)NC(=O)[C@H](CCC(=O)O)N(C)C(=O)[C@H](Cc2c[nH]c3ccccc23)NC(=O)[C@@H]2CNCCN2C(=O)[C@H](Cc2ccncc2)NC1=O` [SEQ ID NO. 195] (cyclo([4Pal][Trp(7-Cl)][αMeS][Phe(4-COOH)]Y(Me2NCH2CH2)[Sar][Trp(βS-Me,7-OMe)][X1][Nle][4Pal][Pip(4-aza)]W[NMeE]N)) are 1600 pM and 280 pM.
In the same order, the values of `CCCC[C@@H]1NC(=O)[C@@H]2CC[C@@H](C2)NC(=O)[C@H]([C@@H](C)c2c[nH]c3c(OC)cccc23)NC(=O)CN(C)C(=O)[C@H](Cc2ccc(O)cc2)NC(=O)[C@H](Cc2ccc(C(=O)O)cc2)NC(=O)[C@](C)(CO)NC(=O)[C@H](Cc2c[nH]c3c(Cl)cccc23)NC(=O)[C@H](Cc2ccncc2)NC(=O)[C@H](CC(N)=O)NC(=O)[C@H](CCC(=O)O)N(C)C(=O)[C@H](Cc2cn(CC(=O)O)c3ccccc23)NC(=O)[C@@H]2CNCCN2C(=O)[C@H](Cc2ccncc2)NC1=O` [SEQ ID NO. 197] (cyclo([4Pal][Trp(7-Cl)][αMeS][Phe(4-COOH)]Y[Sar][Trp(βS-Me,7-OMe)][X1][Nle][4Pal][Pip(4-aza)][Trp(1-CH2COOH)][NMeE]N)) are 700 pM and 360 pM.
In the case of `CCCC[C@@H]1NC(=O)[C@@H]2CC[C@@H](C2)NC(=O)[C@H]([C@@H](C)c2c[nH]c3c(OC)cccc23)NC(=O)CN(C)C(=O)[C@H](Cc2ccc(O)cc2)NC(=O)[C@H](Cc2ccc(C(=O)O)cc2)NC(=O)[C@](C)(CO)NC(=O)[C@H](Cc2c[nH]c3c(Cl)cccc23)NC(=O)[C@H](Cc2ccncc2F)NC(=O)[C@H](CC(N)=O)NC(=O)[C@H](CCC(=O)O)N(C)C(=O)[C@H](Cc2c[nH]c3ccccc23)NC(=O)[C@@H]2CNCCN2C(=O)[C@H](Cc2ccncc2)NC1=O` [SEQ ID NO. 198] (cyclo([4Pal][Pip(4-aza)]W[NMeE]N[X53][Trp(7-Cl)][αMeS][Phe(4-COOH)]Y[Sar][Trp(βS-Me,7-OMe)][X1][Nle])), the IC50 in assay [1] turned out to be 800 pM. Also, the affinity in assay [2], expressed as Kd, was 310 pM.
As for `CCCC[C@@H]1NC(=O)[C@@H]2CC[C@@H](C2)NC(=O)[C@H]([C@@H](C)c2c[nH]c3c(OC)cccc23)NC(=O)CN(C)C(=O)[C@H](Cc2ccc(O)cc2)NC(=O)[C@H](Cc2ccc(S(=O)(=O)O)cc2)NC(=O)[C@](C)(CO)NC(=O)[C@H](Cc2c[nH]c3c(Cl)cccc23)NC(=O)[C@H](Cc2ccncc2)NC(=O)[C@H](CC(N)=O)NC(=O)[C@H](CCC(=O)O)N(C)C(=O)[C@H](Cc2c[nH]c3ccccc23)NC(=O)[C@@H]2CNCCN2C(=O)[C@H](Cc2ccncc2)NC1=O` [SEQ ID NO. 199] (cyclo([4Pal][Trp(7-Cl)][αMeS][Phe(4-SO3H)]Y[Sar][Trp(βS-Me,7-OMe)][X1][Nle][4Pal][Pip(4-aza)]W[NMeE]N)), in assay [1], the IC50 worked out at 1000 pM. Moreover, the affinity in assay [2], expressed as Kd, was 320 pM.
